# Laboratory results taken from ChEMBL document CHEMBL3576851, “Bacterial Sliding Clamp Inhibitors that Mimic the Sequential Binding Mechanism of Endogenous Linear Motifs” (J Med Chem, 2015).
# Activity calls are given as the source filed them. The calls are words filed in the database; no cut-off is given here.
# Key:
# Beta sliding clamp [1] = biological target: T1, Beta sliding clamp (Escherichia coli (strain K12), UniProt P0A988); assay: Inhibition of Escherichia coli DNA sliding clamp protein using N-fluorescein (FAM)-QLDLF-OH tracer by fluorescence polarization assay
# [2] = biological target: Beta sliding clamp (Escherichia coli (strain K12)) (UniProt P0A988); assay: Inhibition of Escherichia coli DNA sliding clamp protein assessed as reduction in DNA replication at >125 uM in presence of circular ssDNA, RNA primer template, SSB, Pol3-alpha subunit, reconstituted gamma3delta-delta' clamp loader complex by SYBR gold dye based agarose gel electrophoresis method
# Beta sliding clamp [3] = biological target: T1, Beta sliding clamp; assay: Binding affinity to Escherichia coli DNA sliding clamp protein at 298K by isothermal titration calorimetry
# [4] = biological target: Beta sliding clamp (Escherichia coli (strain K12)) (UniProt P0A988); assay: Inhibition of Escherichia coli DNA sliding clamp protein assessed as reduction in DNA replication at 31 uM in presence of circular ssDNA, RNA primer template, SSB, Pol3-alpha subunit, reconstituted gamma3delta-delta' clamp loader complex by SYBR gold dye based agarose gel electrophoresis method
# T1 sequence (P0A988 whole entry): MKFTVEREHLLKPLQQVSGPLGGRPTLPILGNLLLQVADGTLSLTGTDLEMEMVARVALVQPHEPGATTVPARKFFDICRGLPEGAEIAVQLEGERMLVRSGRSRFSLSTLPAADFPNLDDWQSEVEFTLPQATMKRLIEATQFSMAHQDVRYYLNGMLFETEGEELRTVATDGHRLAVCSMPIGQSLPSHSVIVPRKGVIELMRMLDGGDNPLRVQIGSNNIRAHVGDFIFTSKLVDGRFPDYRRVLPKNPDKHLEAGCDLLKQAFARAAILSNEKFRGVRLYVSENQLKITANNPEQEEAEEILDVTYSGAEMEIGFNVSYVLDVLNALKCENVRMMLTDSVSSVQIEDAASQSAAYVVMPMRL
# Chain of Beta sliding clamp (Escherichia coli (strain K12)) (P0A988 whole entry): as above
IC50 (Beta sliding clamp [1]) [µM],Ki (Beta sliding clamp [1]) [µM],inhibition [2],Kd (Beta sliding clamp [3]) [µM],inhibition [4],SMILES
299,166,–,–,–,O=C(O)C1CCc2c([nH]c3ccc(Cl)cc23)C1 (racemic)
> 1000,–,–,–,–,COC(=O)C1CCc2c([nH]c3ccc(Cl)cc23)C1 (racemic)
150,83,–,–,–,CC(C)(C)OC(=O)N1CCC(CNC(=O)Cn2c3c(c4cc(Br)ccc42)CC[C@@H](C(=O)O)C3)CC1
307,171,–,–,–,NC(=O)CN1CCC(NC(=O)Cn2c3c(c4cc(Br)ccc42)CC[C@@H](C(=O)O)C3)CC1
368,204,Active,–,–,NC(=O)Cn1c2c(c3cc(Cl)ccc31)CC[C@@H](C(=O)O)C2
328,182,–,–,–,O=C(O)[C@H]1CCc2c([nH]c3ccc(Br)cc23)C1
347,193,–,–,–,CCNC(=O)Cn1c2c(c3cc(Cl)ccc31)CC[C@@H](C(=O)O)C2
64,36,–,–,–,NC(=O)c1ccc(CNC(=O)Cn2c3c(c4cc(Br)ccc42)CC[C@@H](C(=O)O)C3)cc1
> 1000,–,–,–,–,NC(=O)C1CCc2c([nH]c3ccc(Cl)cc23)C1 (racemic)
285,158,–,–,–,NC(=O)Cn1c2c(c3cc(Br)ccc31)CC[C@H](C(=O)O)C2
115,64,–,–,–,CC(C)(C)OC(=O)NCCCC[C@@H](NC(=O)Cn1c2c(c3cc(Br)ccc31)CC[C@@H](C(=O)O)C2)C(=O)O

# Second part, the compound before the results:
SMILES,IC50 (Beta sliding clamp [1]) [µM],Ki (Beta sliding clamp [1]) [µM],inhibition [2],Kd (Beta sliding clamp [3]) [µM],inhibition [4]
NC(=O)Cn1c2c(c3cc(Br)ccc31)CC[C@@H](C(=O)O)C2,246,137,Active,–,–
O=C(O)[C@@H]1CCc2c([nH]c3ccc(Cl)cc23)C1,134,74,Active,–,–
O=C(O)CNC(=O)Cn1c2c(c3cc(Cl)ccc31)CC[C@@H](C(=O)O)C2,85,47,–,24,–
CC(C)C[C@H](NC(=O)Cn1c2c(c3cc(Br)ccc31)CC[C@@H](C(=O)O)C2)C(=O)O,48,27,–,–,–
NC(=O)Cc1ccc(NC(=O)Cn2c3c(c4cc(Cl)ccc42)CC[C@@H](C(=O)O)C3)cc1,362,201,–,–,–
O=C(O)[C@H]1CCc2c([nH]c3ccc(Cl)cc23)C1,442,246,–,–,–
O=C(O)[C@@H]1CCc2c([nH]c3ccc(F)cc23)C1,817,454,–,–,–
OCC1CCc2c([nH]c3ccc(Cl)cc23)C1 (racemic),> 1000,–,–,–,–
O=C(O)[C@@H]1CCc2c([nH]c3ccc(Br)cc23)C1,157,87,Active,–,–
O=C(Cn1c2c(c3cc(Br)ccc31)CC[C@@H](C(=O)O)C2)N[C@@H](Cc1ccccc1)C(=O)O,27,15,–,9,Active
NC(=O)CNC(=O)Cn1c2c(c3cc(Br)ccc31)CC[C@@H](C(=O)O)C2,171,95,–,–,–
O=C(O)CNC(=O)Cn1c2c(c3cc(Br)ccc31)CC[C@@H](C(=O)O)C2,20,11,–,14,Active
O=C(O)[C@@H]1CCc2c([nH]c3ccc(I)cc23)C1,175,97,–,–,–
O=C(Cn1c2c(c3cc(Br)ccc31)CC[C@@H](C(=O)O)C2)NCC1CCNCC1,208,116,–,–,–
O=C(Cn1c2c(c3cc(Br)ccc31)CC[C@@H](C(=O)O)C2)N[C@H](Cc1ccccc1)C(=O)O,30,17,–,13,Active
NC(=O)Cn1c2c(c3cc(Cl)ccc31)CC[C@H](C(=O)O)C2,888,493,–,–,–
